In article PMC12116762, “Topobexin targets the Topoisomerase II ATPase domain for beta isoform-selective inhibition and anthracycline cardioprotection” (Nature Communications, 2025):
“And” between values parts separate entries of the source, which are not always exact repeats. Equal entries are not always repeated.

Assays:
γH2AX = γH2AX levels in NVCM (Western blotting); format: cell-based, rat; parameters: γH2AX level, mean: scale not given here; conditions: for γH2AX level: independent replicates
Procedure: TOP2B and γH2AX levels in NVCM were determined as follows. After incubation, 4 × 10^5 rat neonatal cardiomyocytes were lysed with 75 µL of 2% SDS in 0.1 M Tris (pH 7.4) and boiled at 95 °C for 5 min. The protein content of each sample was determined by the BCA method and 10 μg of total protein were loaded onto a polyacrylamide gel (7.5% for TOP2B, 12% for γH2AX, Bio-Rad TGX stain-free gels). After approximately 75 min of electrophoresis (150 V, Bio-Rad Mini-PROTEAN Tetra Cell), the gels were transblotted onto nitrocellulose membranes using a semi-dry method in Transblot Turbo (Bio-Rad, USA). The next day, the membranes were blocked for 1 h in 5% skimmed milk powder in 0.05% TBS-T at room temperature (RT). For TOP2 analysis, membranes were incubated with rabbit anti-TOP2A/B (1:2,000, ab109524, Abcam, UK) in 1% BSA in PBS for 1 h at RT, washed 6 times for 5 min in 0.05% TBS-T and then incubated with HRP-labeled F(ab’)2 goat anti-rabbit IgG (1:10,000, ab6112, Abcam, UK) in 0.05% TBS-T for 1 h RT and washed again (6 × 5 min in 0.05% TBS-T). For γH2AX analysis, membranes were incubated with mouse anti-γH2AX (1:5,000; ab26350, Abcam, UK) in 5% BSA in PBS for 1 h at RT, washed with 0.05% PBS-T for 6 × 5 min, incubated with HRP-conjugated anti-mouse IgG (1:40,000; A9044 Sigma Aldrich, USA) in 5% BSA in PBS for 1 h RT and finally washed with 0.05% PBS-T for 6 times 5 min. Target proteins were visualized using a chemiluminescent detection substrate (Clarity Western ECL Substrate, Bio-Rad, USA) and a Gel Doc EZ with Image Lab software (Bio-Rad, USA). Full, uncropped images of all blots present in the manuscript figures are included in the source data file.
Densitometric quantification was performed using Image Lab software (Bio-Rad). Stain-free technology was used to visualize the total protein on the gel and normalize the total protein amount in each line. Each presented data point was obtained from distinct sample.

[1] = tested on: neonatal rat ventricular cardiomyocytes (NVCM); assay: Protection against DAU-induced cytotoxicity (LDH release) in NVCM; format: cell-based; conditions: for LDH release: independent replicates
How it was run: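 Primary neonatal Wistar rat cardiomyocytes in serum- and pyruvate-free DMEM/F12 were pretreated with compound 3 h, then co-incubated 3 h with DAU (1.2 µM), or without DAU for inherent toxicity, then given a 48 h drug-free follow-up. Medium LDH activity (NAD+ reduction at 340 nm) expressed as % of total LDH.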

## CCCc1cc(=O)oc2c(C(=O)N3CCCc4ccccc43)c(OCCN3CCN(C)CC3)ccc12 [topobexin (9)]
γH2AX; 0.1 µM + DAU 1.2 µM
  γH2AX level, mean: 39.0271
  γH2AX level: 36.8376 and 42.68 and 24.34 and 52.2506
γH2AX; 0.1 µM alone
  γH2AX level, mean: 2.32
γH2AX; 0.1 µM alone, DAU mean 100
  γH2AX level: 5.77 and 0.9222 and 2.18 and 0.4088
γH2AX; 1 µM + DAU 1.2 µM
  γH2AX level, mean: 7.0222
  γH2AX level: 17.1283 and 3.616 and 2.74 and 4.605
γH2AX; 1 µM alone
  γH2AX level, mean: 3.099
  γH2AX level: 8.242 and 0.9663 and 2.352 and 0.8374
γH2AX; 10 µM + DAU 1.2 µM
  γH2AX level, mean: 3.08
  γH2AX level: 6.036 and 4.664 and 0.5024 and 1.119
γH2AX; 10 µM alone
  γH2AX level, mean: 2.838
  γH2AX level: 3.615 and 3.033 and 2.846 and 1.856
γH2AX; NVCM
  lowest concentration tested preventing DAU-induced γH2AX: 0.1 µM
[1]; NVCM, DAU 1.2 µM
  concentration providing significant cardioprotection: ≥ 1 µM
[1]; Rattus norvegicus, Cardiomyocyte, NVCM, protection against DAU 1.2 µM, n=4, read-out: LEC = lowest effective concentration
  minimal effective concentration: 1 µM
[1]; compound 0.01 µM + DAU 1.2 µM
  LDH release, mean: 39.6717 % of total LDH
  LDH release: 48.3922 % of total LDH and 39.9759 % of total LDH and 35.5793 % of total LDH and 34.7393 % of total LDH
[1]; compound 0.01 µM + DAU 1.2 µM, NVCM, Suppl.Fig.6b
  LDH release (protection against DAU), mean of independent replicates: 39.6717
[1]; compound 0.1 µM + DAU 1.2 µM
  LDH release, mean: 37.5382 % of total LDH
  LDH release: 40.1489 % of total LDH and 41.381 % of total LDH and 32.4516 % of total LDH and 36.1711 % of total LDH
[1]; compound 0.1 µM + DAU 1.2 µM, NVCM, Suppl.Fig.6b
  LDH release (protection against DAU), mean of independent replicates: 37.5382
[1]; compound 0.1 µM + DAU 1.2 µM, NVCM, Suppl.Fig.8a
  LDH release (protection against DAU), mean of independent replicates: 42.825
[1]; compound 1 µM + DAU 1.2 µM
  LDH release, mean: 29.7613 % of total LDH
  LDH release: 32.8929 % of total LDH and 30.456 % of total LDH and 27.486 % of total LDH and 28.2102 % of total LDH
[1]; compound 1 µM + DAU 1.2 µM, NVCM, Suppl.Fig.6b
  LDH release (protection against DAU), mean of independent replicates: 29.7613
[1]; compound 1 µM + DAU 1.2 µM, NVCM, Suppl.Fig.8a
  LDH release (protection against DAU), mean of independent replicates: 37.7816
[1]; compound 10 µM + DAU 1.2 µM
  LDH release, mean: 24.2662 % of total LDH
  LDH release: 28.5774 % of total LDH and 24.8184 % of total LDH and 21.0698 % of total LDH and 22.5992 % of total LDH
[1]; compound 10 µM + DAU 1.2 µM, NVCM, Suppl.Fig.6b
  LDH release (protection against DAU), mean of independent replicates: 24.2662
[1]; compound 10 µM + DAU 1.2 µM, NVCM, Suppl.Fig.8a
  LDH release (protection against DAU), mean of independent replicates: 30.0056
[1]; compound 30 µM + DAU 1.2 µM
  LDH release, mean: 25.2224 % of total LDH
  LDH release: 28.8537 % of total LDH and 23.9613 % of total LDH and 20.3957 % of total LDH and 27.679 % of total LDH
[1]; compound 30 µM + DAU 1.2 µM, NVCM, Suppl.Fig.6b
  LDH release (protection against DAU), mean of independent replicates: 25.2224
[1]; compound 100 µM + DAU 1.2 µM
  LDH release, mean: 26.7487 % of total LDH
  LDH release: 31.0584 % of total LDH and 27.7033 % of total LDH and 21.5053 % of total LDH and 26.728 % of total LDH
[1]; compound 100 µM + DAU 1.2 µM, NVCM, Suppl.Fig.6b
  LDH release (protection against DAU), mean of independent replicates: 26.7487
[1]; compound 100 µM + DAU 1.2 µM, NVCM, Suppl.Fig.8a
  LDH release (protection against DAU), mean of independent replicates: 32.5863
[1]; side-by-side comparison with dexrazoxane (Supp Fig 8a)
  lowest concentration with statistically significant cytoprotective effects: 0.1 µM
